Several values for one entry are separate records, joined by “and”; a condition that tells them apart may be missing. Identical values can stand only once. Counter-ions that a name gives are not always drawn. Like-named read-outs stand apart in the source and are kept apart here.
What was measured:
SUDHL5 = assay: Anti-proliferative effect in SUDHL5 cells, CellTiter-Glo (Assay 7); assay type: cell-based
Method in brief: (§1)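 CellTiter-Glo luminescence after 72 h compound exposure at 37 °C; a parallel time-zero plate was read the same way. IC50 derived relative to day 0 signal and DMSO control.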

MV-4-11 = assay: Anti-proliferative effect in MV-4-11 cells, CellTiter-Glo (Assay 7); assay type: cell-based
Method in brief: as §1

BCL-XL = BCL-XL (Homo sapiens, UniProt Q07817); assay: Protein-protein interaction assay BCL-XL/Bad BH3 peptide, TR-FRET (BCL-XL assay, Assay 2); assay type: binding; conditions: His-BCL-XL / Bad BH3 peptide, median
Chain of BCL-XL (Q07817 1-212): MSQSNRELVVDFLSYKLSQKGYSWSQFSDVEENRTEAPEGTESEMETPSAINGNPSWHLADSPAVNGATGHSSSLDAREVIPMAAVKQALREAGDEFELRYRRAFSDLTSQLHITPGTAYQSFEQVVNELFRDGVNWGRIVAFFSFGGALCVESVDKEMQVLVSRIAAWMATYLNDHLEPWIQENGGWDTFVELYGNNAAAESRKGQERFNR
Description: Protein-Protein Interaction Assay: BCL-XL/Bad BH3 Peptide (BCL-XL Assay)
The dose-dependent inhibition by the compounds described in this invention of the interaction between BCL-XL and the BH3 domain of Bad (both human) was determined using a steady state binding competition assay with time-resolved fluorescence energy transfer (TR-FRET) readout. For that purpose BCL-XL (amino acids 1-212, C-terminal fused to a hexahistidine (6×His) tag (SEQ ID 3) and a synthetic Bad BH3-derived peptide of sequence Biotin-PEG2-PEG2-[sequence]-Nle-[sequence]-amide (SEQ ID 4) served as protein receptor and tracer ligand respectively. The recombinant BCL-XL protein (expressed in E. coli) was purchased from BPS Bioscience (San Diego, Calif., USA). The Bad BH3-derived peptide can be obtained from e.g. Biosyntan (Berlin, Germany).
For that, 100-fold concentrated DMSO solutions were prepared by serial dilutions (1:3.4) of a 2 mM stock solution in a clear, 384-well microtiter plate (Greiner Bio-One, Frickenhausen, Germany). From there, 50 nl were transferred in a dark test plate (Greiner Bio-One, Frickenhausen, Germany). The assay was initiated by addition of 2 μl of a 2,5-fold concentrated His-BCL-XL solution (usually for a 1 nM end concentration in 5 μl reaction volume) in aqueous assay buffer [50 mM Tris/HCl pH 7, 100 mM sodium chloride (NaCl), 50 mM potassium fluoride (KF), 0.005% Tween-20, 2 mM DTT, 0.1% bovine gamma globulin (BGG)] to the compounds in the assay plate. This was followed by a 10-minute incubation step at 22° C. for pre-equilibration of the putative complex between His-BCL-XL and the compounds.
The mixture was incubated in the dark for one hour at 22° C. and then overnight at 4° C. The formation of BCL-XL/Bad complexes was determined by measuring the resonance energy transfer of the anti-His- Eu-cryptate antibody to the streptavidin-XL665 present in the reaction. For that purpose, the fluorescence emission at 620 nm and 665 nm after excitation at 330-350 nm was measured in a TR-FRET measuring instrument, for instance a Rubystar or a Pherastar (both from BMG Lab Technologies, Offenburg, Germany) or a Viewlux (Perkin-Elmer). The ratio of the emission at 665 nm and at 622 nm was used as indicator of the amount of BCL-XL/Bad complexes present.
(§2) The resulting data (ratio) were normalized, taking 0% inhibition as the mean value of control measurements (usually 32 data points) where all reagents were included. In this case 50 nl DMSO were used instead of compounds. […] IC50 values were determined by regression analysis based on a 4 parameter equation (minimum, maximum, IC50, Hill; Y=Max+(Min−Max)/(1+(X/IC50)^Hill) using the Screener Software (Genedata).

BCL-2 = BCL-2 (Homo sapiens, UniProt P10415); assay: Protein-protein interaction assay BCL-2/Bad BH3 peptide, TR-FRET (BCL-2 assay, Assay 3); assay type: binding; conditions: His-BCL-2 / Bad BH3 peptide, median
Chain of BCL-2 (P10415 1-211): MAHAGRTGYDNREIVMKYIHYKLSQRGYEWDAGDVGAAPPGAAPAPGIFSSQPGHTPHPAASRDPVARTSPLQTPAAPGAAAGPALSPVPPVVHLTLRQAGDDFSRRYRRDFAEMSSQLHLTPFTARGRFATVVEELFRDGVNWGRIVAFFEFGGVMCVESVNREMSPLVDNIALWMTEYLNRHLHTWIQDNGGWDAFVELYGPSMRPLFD
Description: The dose-dependent inhibition by the compounds described in this invention of the interaction between BCL-2 and the BH3 domain of Bad (both human) was determined using a steady state binding competition assay with time-resolved fluorescence energy transfer (TR-FRET) readout. For that purpose BCL-2 (amino acids 1-211, C-terminal fused to a hexahistidine (6×His) tag (SEQ ID 5) and a synthetic Bad BH3-derived peptide of sequence Biotin-PEG2-PEG2-[sequence]-Nle-[sequence]-amide (SEQ ID 4) served as protein receptor and tracer ligand respectively. The recombinant BCL-2 protein (expressed in E. coli) was purchased from BPS Bioscience (San Diego, Calif., USA). The Bad BH3-derived peptide can be obtained from e.g. Biosyntan (Berlin, Germany).
For that, 100-fold concentrated DMSO solutions were prepared by serial dilutions (1:3.4) of a 2 mM stock solution in a clear, 384-well microtiter plate (Greiner Bio-One, Frickenhausen, Germany). From there, 50 nl were transferred in a dark test plate (Greiner Bio-One, Frickenhausen, Germany). The assay was initiated by addition of 2 μl of a 2,5-fold concentrated His-BCL-2 solution (usually for a 1 nM end concentration in 5 μl reaction volume) in aqueous assay buffer [50 mM Tris/HCl pH 7, 100 mM sodium chloride (NaCl), 50 mM potassium fluoride (KF), 0.005% Tween-20, 2 mM DTT, 0.1% bovine gamma globulin (BGG)] to the compounds in the assay plate. This was followed by a 10-minute incubation step at 22° C. for pre-equilibration of the putative complex between His-BCL-2 and the compounds.
The mixture was incubated in the dark for one hour at 22° C. and then overnight at 4° C. The formation of BCL-2/Bad complexes was determined by measuring the resonance energy transfer of the anti-His-Eu-cryptate antibody to the streptavidin-XL665 present in the reaction. For that purpose, the fluorescence emission at 620 nm and 665 nm after excitation at 330-350 nm was measured in a TR-FRET measuring instrument, for instance a Rubystar or a Pherastar (both from BMG Lab Technologies, Offenburg, Germany) or a Viewlux (Perkin-Elmer). The ratio of the emission at 665 nm and at 622 nm was used as indicator of the amount of BCL-2/Bad complexes present.
as §2

MCL1 protein = target: T1, MCL1 protein (Homo sapiens, UniProt Q07820); assay: PIxEL: protein-protein interaction in permeabilized cells by ELISA (Assay 5); assay type: cell-based; conditions: permeabilized RKO cells, biotin-BIM BH3 peptide 0.2 μM, serum free
T1 construct: this assay uses full length endogenous MCL1 protein at mitochondria outer membrane; endogenous in cells; host or cells: RKO colon cancer cell line
T1 sequence (Q07820 whole entry): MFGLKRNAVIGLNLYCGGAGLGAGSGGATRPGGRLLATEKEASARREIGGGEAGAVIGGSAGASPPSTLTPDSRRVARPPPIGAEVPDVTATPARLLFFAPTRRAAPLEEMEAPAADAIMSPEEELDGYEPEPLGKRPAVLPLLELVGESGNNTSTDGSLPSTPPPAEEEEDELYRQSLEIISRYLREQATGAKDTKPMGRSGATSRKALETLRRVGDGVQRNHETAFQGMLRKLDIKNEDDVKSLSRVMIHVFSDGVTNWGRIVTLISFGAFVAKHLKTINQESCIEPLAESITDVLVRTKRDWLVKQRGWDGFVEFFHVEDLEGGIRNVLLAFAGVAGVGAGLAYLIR
Description: PIxEL: Protein-Protein Interaction in Permeabilized Cells by ELISA
Most MCL1 protein molecules are localized at the mitochondria outer membrane and sequester pro-apoptotic proteins through binding of their BCL2 homology domain 3 (BH3 domain). MEB buffer (150 mM mannitol, 10 mM HEPES pH 7.5, 50 mM KCl, 20 μM EDTA, 20 μM EGTA, 5 mM potassium succinate, 0.1% protease-free BSA (SIGMA) with low dose digitonin (0.002%) permeabilizes plasma membrane while leaves live mitochondria, where MCL1 maintains its native localization and conformation. Unlike biophysical assays (e.g. TR-FRET) that use truncated recombinant MCL1 protein, this assay uses full length endogenous MCL1 protein at mitochondria outer membrane. It measures the interaction between MCL1 protein and biotinylated BIM BH3 peptide. Compounds can compete with BIM BH3 peptide to bind to MCL1 protein.
On day 1, RKO colon cancer cell line cells were plated at 0.8 million cells/ml, 100 μl/well in 96-well flat bottom TC plates (Corning). […] Each plate was tapped to make sure liquid covering entire bottom of wells and incubate at 37° C. overnight.
On the second day, MCL1 antibody was washed from ELISA plate. 250 μl Odyssey® Blocking Buffer (PBS) (Li-Cor) was added to each well, incubated at room temperature for at least 1 hour, then washed once with 250 μl 1×PBST. Plates with RKO cells were gently washed once with 100 μl/well PBS, once with 100 μl/well MEB buffer without digitonin, then 100 μl of MEB buffer with 0.002% digitonin was gently added to each well. Compounds were added with HP Tecan compound dispenser in 3-fold dilution series, highest dose 30 μM, 10-dose per compound in quadruplicates. Biotin-BIM peptide (synthesized by 21st Century) was added with HP Tecan compound dispenser at 0.2 μM immediately after the addition of compounds. Plates were rocked for 1 h at room temperature. Then MEB buffer was aspirated and 50 μl of CHAPS buffer (50 mM Tris-Cl, pH 7.4, 150 mM NaCl, 1% CHAPS, 1 mM EDTA, 1 mM EGTA, complete protease inhibitors (Roche), PhosSTOP (Roche)) was added to each well. Plates were rocked for 1 hour at 4° C., then 45 μl cell lysate from each well were transferred to ELISA plates coated with MCL1 antibody. Plates were incubated overnight in the cold room with rocking.
On the third day, ELISA plates were washed once with 250 μl 1×PBST. Streptavidin-poly-HRP (Thermo Fisher Scientific) was diluted to 20 ng/ml in Odyssey blocking buffer plus 0.05% Triton-100, and 100 μl was added to each well of the ELISA plate. Plates were incubated at RT for 1 hour with rocking, then washed with 100 μL 1×PBST for 3 times. Each SuperSignal ELISA Femto Maximum Sensitivity substrate was added to a 50-ml tube and mixed, then 100 μl of mixed substrate was added to each well. Plates were shaken for 1 minute then luminescence was measured by Envision plate reader […]. Signal of each well were normalized by no-compound control and no-cell control. IC50 was calculated using Graphic Pad PRISM software.

AMO-1 = assay: Anti-proliferative effect in AMO-1 cells, CellTiter-Glo (Assay 7); assay type: cell-based
Method in brief: as §1

[1] = Homo sapiens, SU-DHL-5, 72 h, SUDHL5, 72 hours incubation, CellTiter-Glo, median, read-out: Antiproli SUDHL5 [M] (median)
[2] = Homo sapiens, MV4-11, 72 h, MV-4-11, 72 hours incubation, CellTiter-Glo; several values per example; read-out: Antiproli MV-4-11
[3] = MV-4-11, 72 hours incubation, CellTiter-Glo; several values per example; read-out: Antiproli MV-4-11
[4] = SUDHL5, 72 hours incubation, CellTiter-Glo, median, read-out: Antiproli SUDHL5 [M] (median)
[5] = AMO-1, 72 hours incubation, CellTiter-Glo; several values per example; read-out: Antiproli AMO-1
[6] = median, read-out: PIxEL [M] (median)
[7] = Homo sapiens, AMO1, 72 h, AMO-1, 72 hours incubation, CellTiter-Glo; several values per example; read-out: Antiproli AMO-1
[8] = read-out: Antiproli AMO-1; AMO-1, 72 hours incubation, CellTiter-Glo; several values per example
[9] = read-out: Antiproli SUDHL5 [M] (median), SUDHL5, 72 hours incubation, CellTiter-Glo

Row | Structure (SMILES) | IC50 (SUDHL5; [1]) | IC50 (MV-4-11; [2]) | IC50 (MV-4-11; [3]) | IC50 (BCL-XL) | IC50 (SUDHL5; [4]) | IC50 (BCL-2) | IC50 (MCL1 protein; PIxEL [M] (median)) | IC50 (AMO-1; [5]) | IC50 (MCL1 protein; [6]) | IC50 (AMO-1; [7]) | IC50 (AMO-1; [8]) | IC50 (SUDHL5; [9]) | IC50 (MV-4-11; read-out: Antiproli MV-4-11; MV-4-11, 72 hours incubation, CellTiter-Glo; several values per example)
1 | Cc1c2c(nn1C)COCc1ccccc1Cn1c(C(=O)O)c(CCCOc3cccc4cc(F)ccc34)c3ccc(Cl)c-2c31 (racemic) [Example 48, (rac)-3-Chloro-17-{3-[(6-fluoronaphthalen-1-yl)oxy]propyl}-4,5-dimethyl-5,7,9,14-tetrahydroindolo[7,1-fg]pyrazolo[3,4-d][2,8]benzoxazacycloundecine-16-carboxylic Acid] | 1.6e-06 M | 4130 nM | 4810 nM |  |  |  |  |  |  |  |  |  | 
2 | Cc1c2c(nn1C)COCc1ncccc1Cn1c(C(=O)O)c(CCCOc3cccc4ccccc34)c3cccc-2c31 (single isomer, unassigned; enantiomer 1) [Example 8, 4,5-Dimethyl-17-[3-(naphthalen-1-yloxy)propyl]-5,7,9,14-tetrahydropyrazolo[4′,3′:9,10]-pyrido[2′,3′:3,4][1,6]oxazacycloundecino[8,7,6-hi]indole-16-carboxylic acid-N-ethylethanamine Salt (Enantiomer 1)] |  |  |  | > 20000 nM | 3.2e-06 M | > 20000 nM | 1.82e-05 M |  |  |  |  |  | 
3 | Cc1c2c(nn1C)COCc1ccccc1Cn1c(C(=O)O)c(CCCOc3cccc4ccccc34)c3ccc(Cl)c-2c31 (single isomer, unassigned; enantiomer 1) [Example 37, (−)-3-Chloro-4,5-dimethyl-17-[3-(naphthalen-1-yloxy)propyl]-5,7,9,14-tetrahydroindolo[7,1-fg]pyrazolo[3,4-d][2,8]benzoxazacycloundecine-16-carboxylic Acid (Enantiomer 1)] |  |  |  | > 20000 nM |  | > 20000 nM | 1.61e-06 M |  |  |  |  |  | 
4 | CCNCC.Cc1c2c(nn1C)COCc1ncccc1Cn1c(C(=O)O)c(CCCOc3cccc4ccccc34)c3ccc(Cl)c-2c31 (single isomer, unassigned; enantiomer 1) [Example 43, 3-Chloro-4,5-dimethyl-17-[3-(naphthalen-1-yloxy)propyl]-5,7,9,14-tetrahydropyrazolo-[4′,3′:9,10]pyrido[2′,3′:3,4][1,6]oxazacycloundecino[8,7,6-hi]indole-16-carboxylic acid-N-ethylethanamine Salt (Enantiomer 1)] |  |  | 3230 nM and 2830 nM and 4420 nM | > 20000 nM | 1.2e-06 M | > 20000 nM |  | 5160 nM and 7470 nM | 2.97e-06 M |  |  |  | 
5 | Cc1c2c(nn1C)COCc1ccccc1Cn1c(C(=O)O)c(CCCOc3cccc4cc(F)ccc34)c3ccc(Cl)c-2c31 (single isomer, unassigned; enantiomer 1) [Example 49, (−)-3-Chloro-17-{3-[(6-fluoronaphthalen-1-yl)oxy]propyl}-4,5-dimethyl-5,7,9,14-tetrahydroindolo[7,1-fg]pyrazolo[3,4-d][2,8]benzoxazacycloundecine-16-carboxylic acid-N-ethylethanamine Salt (Enantiomer 1)] | 1e-06 M | 3090 nM | 3410 nM and 3780 nM | > 20000 nM |  | ≥ 21800 nM | 7.88e-07 M |  |  | 1920 nM |  |  | 
6 | CCc1nn(CCN2CCOCC2)c2c1-c1c(Cl)ccc3c(CCCOc4cccc5cc(F)ccc45)c(C(=O)O)n(c13)Cc1ccccc1COC2 (single isomer, unassigned; enantiomer 1) [Example 52, (−)-3-Chloro-4-ethyl-17-{3-[(6-fluoronaphthalen-1-yl)oxy]propyl}-6-[2-(morpholin-4-yl)ethyl]-6,7,9,14-tetrahydroindolo[7,1-fg]pyrazolo[3,4-d][2,8]benzoxazacycloundecine-16-carboxylic Acid (Enantiomer 1)] |  |  |  | > 20000 nM | 5.7e-07 M | > 20000 nM |  | 2270 nM | 3.68e-07 M |  |  |  | 
7 | Cc1c2c(nn1C)COCc1ccccc1Cn1c(C(=O)O)c(CCCOc3cccc4cc(F)ccc34)c3ccc(F)c-2c31 (single isomer, unassigned; enantiomer 1) [Example 65, (−)-3-fluoro-17-{3-[(6-fluoronaphthalen-1-yl)oxy]propyl}-4,5-dimethyl-5,7,9,14-tetrahydroindolo[7,1-fg]pyrazolo[3,4-d][2,8]benzoxazacycloundecine-16-carboxylic acid-N-ethylethanamine Salt (Enantiomer 1)] | 1.1e-06 M |  |  | > 20000 nM |  | 16900 nM | 1.04e-06 M | 1750 nM |  | 2000 nM |  |  | 
8 | Cc1c2c(nn1C)COCc1ccccc1Cn1c(C(=O)O)c(CCCOc3cccc4ccccc34)c3ccc(F)c-2c31 (single isomer, unassigned; enantiomer 1) [Example 68, (−)-3-Fluoro-4,5-dimethyl-17-{3-[(naphthalen-1-yl)oxy]propyl}-5,7,9,14-tetrahydroindolo[7,1-fg]pyrazolo[3,4-d][2,8]benzoxazacycloundecine-16-carboxylic acid-N-ethylethanamine Salt (Enantiomer 1)] |  |  |  | > 20000 nM |  | > 20000 nM | 2.16e-06 M |  |  |  | 4400 nM and 4890 nM | 1.4e-06 M | 
9 | Cc1c2c(nn1C)COCc1ccccc1Cn1c(C(=O)O)c(CCCOc3cccc4cc(F)ccc34)c3ccc(Cl)c-2c31 (single isomer, unassigned; enantiomer 2) [Example 50, (+)-3-Chloro-17-{3-[(6-fluoronaphthalen-1-yl)oxy]propyl}-4,5-dimethyl-5,7,9,14-tetrahydroindolo[7,1-fg]pyrazolo[3,4-d][2,8]benzoxazacycloundecine-16-carboxylic acid-N-ethylethanamine Salt (Enantiomer 2)] |  |  | 2210 nM and 3070 nM and 2530 nM |  | 1.5e-06 M |  | 1.69e-06 M | 2820 nM |  |  |  |  | 
10 | CCc1c2c(nn1C)COCc1ccccc1Cn1c(C(=O)O)c(CCCOc3cccc4cc(F)ccc34)c3ccc(Cl)c-2c31 (single isomer, unassigned; enantiomer 2) [Example 56, (+)-3-Chloro-4-ethyl-17-{3-[(6-fluoronaphthalen-1-yl)oxy]propyl}-5-methyl-5,7,9,14-tetrahydro-indolo[7,1-fg]pyrazolo[3,4-d][2,8]benzoxazacycloundecine-16-carboxylic Acid N-ethylethanamine Salt (Enantiomer 2)] |  |  |  |  |  |  | 2.35e-06 M |  |  |  | 4200 nM | 2.1e-06 M | 2770 nM
